Reference: paper PMC5884628 (International journal of biological macromolecules, 2016)

Experiments:
melanoma cell = conditions: ref [31]; cited from earlier work
erythrocytes = conditions: ref [26], [27]; cited from earlier work
[1] = system: null E. coli strain (pUC118/DK8); experiment: Growth of null E. coli in the presence of venom peptides; type: cell-based, Escherichia coli; conditions: null strain in comparison to wild-type
Escherichia coli = conditions: ref [26], [27]; cited from earlier work
[2] = system: wild-type membrane bound F1Fo ATP synthase; experiment: Inhibition of membrane bound F1Fo ATPase activity by venom peptides; type: biochemical, Escherichia coli; conditions: 60 min preincubation at RT, pH 8.0; Fig. 2
[3] = system: burns and acute infections; conditions: ref [26], [27]; cited from earlier work
[4] = system: wild-type E. coli strain (pBWU13.4/DK8); experiment: Growth of wild-type E. coli in the presence of venom peptides; type: cell-based, Escherichia coli; conditions: wild-type in comparison to null strain
Pseudomonas aeruginosa = conditions: ref [26], [27], cited from earlier work
Staphylococcus aureus = conditions: ref [26], [27], cited from earlier work
[5] = system: human pathogenic bacteria; multi-drug resistant bacterial strains; conditions: broad spectrum of microbes; ref [26], [27]; cited from earlier work
P. aeruginosa = conditions: rat models; ref [26], [27]; cited from earlier work
[6] = ref [26], [27]; cited from earlier work
E. coli = conditions: ref [18], [19]; cited from earlier work
E. coli ATP synthase = conditions: ref [18], [19]; cited from earlier work

Substance | melanoma cell proliferation (melanoma cell) | hemolytic activity (erythrocytes) | inhibition of null E. coli (in words) [1] | effectiveness against drug-resistant Escherichia coli (Escherichia coli) | inhibition of ATP synthase (in words) [2] | effectiveness in burns and acute infections [3] | inhibition of wild-type E. coli (in words) [4] | effectiveness against drug-resistant Pseudomonas aeruginosa (Pseudomonas aeruginosa; drug-resistant) | time to kill P. aeruginosa (Pseudomonas aeruginosa) | effectiveness against drug-resistant Staphylococcus aureus (Staphylococcus aureus; drug-resistant) | time to kill S. aureus (Staphylococcus aureus) | antimicrobial activity in comparison to gentamicin, ampicillin, or bacitracin [5] | P. aeruginosa colony formation (P. aeruginosa) | subsequent infection and inflammation (P. aeruginosa) | cytotoxic activity [6] | E. coli growth (E. coli) | inhibition of E. coli ATP synthase (E. coli ATP synthase)
KFFRKLKKSVKKRAKEFFKKPRVIGVSIPF [BF-30] | selectively inhibit melanoma cell proliferation | no obvious hemolytic | partial inhibition | effective | strong inhibition of ATP synthase | effective | potent inhibition | effective | less than 120 minutes | effective | less than 120 minutes | stronger antimicrobial activity | significantly reduced | prevented | no obvious hemolytic or cytotoxic activity |  | 
melittin |  |  |  |  |  |  |  |  |  |  |  |  |  |  |  | abrogation of E. coli growth | potently inhibit
